Target: human NaV 1.8 (Homo sapiens, UniProt Q9Y5Y9)
Experiment: E-VIPR assay for detecting and measuring NaV inhibition properties
Format: cell-based
Conditions: E-VIPR assay conducted in the presence of human serum; HEK cells expressing truncated human NaV 1.8; read-out: IC50
Procedure, shortened: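 HEK cells with truncated human NaV1.8 plus KIR2.1 BacMam, hexyl dye loaded 20 min, compound 30 min at room temperature, 11-point 3-fold series […], 0.625% DMSO, with or without human serum. E-VIPR biphasic stimulation at 10 Hz for 10 s; membrane-potential response read as normalized coumarin/oxonol ratio.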

Sequence of human NaV 1.8 (Q9Y5Y9 whole entry, looked up): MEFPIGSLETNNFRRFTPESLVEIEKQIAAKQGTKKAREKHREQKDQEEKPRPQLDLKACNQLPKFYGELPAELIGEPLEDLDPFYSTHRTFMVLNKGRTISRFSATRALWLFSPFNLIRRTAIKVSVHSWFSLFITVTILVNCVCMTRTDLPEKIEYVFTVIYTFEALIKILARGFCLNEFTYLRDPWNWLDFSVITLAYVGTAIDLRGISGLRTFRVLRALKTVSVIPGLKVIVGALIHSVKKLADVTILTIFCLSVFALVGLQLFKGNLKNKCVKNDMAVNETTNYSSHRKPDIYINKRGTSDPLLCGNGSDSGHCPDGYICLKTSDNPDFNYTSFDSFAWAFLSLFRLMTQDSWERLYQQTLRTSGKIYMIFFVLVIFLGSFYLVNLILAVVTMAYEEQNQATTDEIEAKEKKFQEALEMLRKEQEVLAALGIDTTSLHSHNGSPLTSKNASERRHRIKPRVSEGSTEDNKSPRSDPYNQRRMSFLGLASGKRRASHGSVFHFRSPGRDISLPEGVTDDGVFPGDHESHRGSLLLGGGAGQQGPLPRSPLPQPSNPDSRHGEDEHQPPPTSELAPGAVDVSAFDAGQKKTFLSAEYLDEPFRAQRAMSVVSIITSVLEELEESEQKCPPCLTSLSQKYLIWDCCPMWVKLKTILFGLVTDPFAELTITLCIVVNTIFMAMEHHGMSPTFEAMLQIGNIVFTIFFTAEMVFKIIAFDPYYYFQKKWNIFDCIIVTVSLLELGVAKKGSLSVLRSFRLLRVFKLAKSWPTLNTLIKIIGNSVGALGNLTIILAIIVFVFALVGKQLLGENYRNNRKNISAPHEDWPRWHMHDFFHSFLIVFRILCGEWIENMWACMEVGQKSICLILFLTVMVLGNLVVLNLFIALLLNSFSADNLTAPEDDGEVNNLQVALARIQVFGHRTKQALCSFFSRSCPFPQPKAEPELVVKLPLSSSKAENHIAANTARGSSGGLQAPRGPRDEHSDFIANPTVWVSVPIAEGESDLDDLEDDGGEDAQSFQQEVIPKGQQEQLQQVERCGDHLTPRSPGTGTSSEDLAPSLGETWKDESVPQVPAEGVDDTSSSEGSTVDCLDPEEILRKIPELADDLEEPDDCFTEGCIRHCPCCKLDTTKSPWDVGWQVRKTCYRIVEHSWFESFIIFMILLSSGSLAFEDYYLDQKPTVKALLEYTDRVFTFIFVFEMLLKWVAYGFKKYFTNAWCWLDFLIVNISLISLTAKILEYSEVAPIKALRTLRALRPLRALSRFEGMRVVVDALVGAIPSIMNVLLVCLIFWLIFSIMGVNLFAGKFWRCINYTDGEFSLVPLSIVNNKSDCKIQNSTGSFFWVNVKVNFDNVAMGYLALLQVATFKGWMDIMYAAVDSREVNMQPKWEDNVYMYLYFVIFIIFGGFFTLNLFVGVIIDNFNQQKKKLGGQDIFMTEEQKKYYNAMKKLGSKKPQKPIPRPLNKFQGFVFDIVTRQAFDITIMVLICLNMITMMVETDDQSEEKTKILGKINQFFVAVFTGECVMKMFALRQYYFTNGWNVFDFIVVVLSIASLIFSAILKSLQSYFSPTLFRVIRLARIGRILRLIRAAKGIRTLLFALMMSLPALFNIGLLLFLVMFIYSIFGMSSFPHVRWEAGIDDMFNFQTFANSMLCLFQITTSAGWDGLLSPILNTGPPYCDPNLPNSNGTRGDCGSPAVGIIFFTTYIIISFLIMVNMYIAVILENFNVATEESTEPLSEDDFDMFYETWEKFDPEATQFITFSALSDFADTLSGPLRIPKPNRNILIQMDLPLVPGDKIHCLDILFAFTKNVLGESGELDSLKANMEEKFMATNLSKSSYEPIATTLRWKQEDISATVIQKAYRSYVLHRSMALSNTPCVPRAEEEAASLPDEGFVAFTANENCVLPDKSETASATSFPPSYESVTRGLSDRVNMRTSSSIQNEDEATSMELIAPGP

SMILES	IC50 [nM]
Cc1c(C(F)(F)F)ccc(Oc2ccc(Cl)cc2F)c1C(=O)Nc1ccc(C(N)=O)nc1 [Compound 234, 5-[[6-(4-chloro-2-fluoro-phenoxy)-2-methyl-3-(trifluoromethyl)benzoyl]amino]pyridine-2-carboxamide]	> 3000
COc1ccc(Oc2ccc(C(F)(F)F)c(C)c2C(=O)Nc2ccc(C(N)=O)nc2)c(Cl)c1 [Compound 235, 5-[[6-(2-chloro-4-methoxy-phenoxy)-2-methyl-3-(trifluoromethyl)benzoyl]amino]pyridine-2-carboxamide]	1400
Cc1cc(OC(F)(F)F)ccc1Oc1ccc(C(F)(F)F)c(C)c1C(=O)Nc1ccc(C(N)=O)nc1 [Compound 236, 5-[[2-methyl-6-[2-methyl-4-(trifluoromethoxy)phenoxy]-3-(trifluoromethyl)benzoyl]amino]pyridine-2-carboxamide]	170
Cc1c2c(cc(Oc3ccc(OC(F)(F)F)cc3Cl)c1C(=O)Nc1ccnc(C(N)=O)c1)OC(F)(F)O2 [Compound 239, 4-[[6-[2-chloro-4-(trifluoromethoxy)phenoxy]-2,2-difluoro-4-methyl-1,3-benzodioxole-5-carbonyl]amino]pyridine-2-carboxamide]	72
Cc1c2c(cc(Oc3ccc(OC(F)(F)F)cc3Cl)c1C(=O)Nc1ccc(C(N)=O)nc1)OC(F)(F)O2 [Compound 240, 5-[[6-[2-chloro-4-(trifluoromethoxy)phenoxy]-2,2-difluoro-4-methyl-1,3-benzodioxole-5-carbonyl]amino]pyridine-2-carboxamide]	570
Cc1cc(OC(F)(F)F)cc(Oc2ccc(OC(F)(F)F)cc2Cl)c1C(=O)Nc1ccnc(C(N)=O)c1 [Compound 241, 4-[[2-[2-chloro-4-(trifluoromethoxy)phenoxy]-6-methyl-4-(trifluoromethoxy)benzoyl]amino]pyridine-2-carboxamide]	190
Cc1cc(OC(F)(F)F)cc(Oc2ccc(OC(F)(F)F)cc2Cl)c1C(=O)Nc1ccc(C(N)=O)nc1 [Compound 243, 5-[[2-[2-chloro-4-(trifluoromethoxy)phenoxy]-6-methyl-4-(trifluoromethoxy)benzoyl]amino]pyridine-2-carboxamide]	1850
COc1cc(OC(F)(F)F)ccc1Oc1ccc(C(F)F)c(C)c1C(=O)Nc1ccnc(C(N)=O)c1 [Compound 244, 4-[[3-(difluoromethyl)-6-[2-methoxy-4-(trifluoromethoxy)phenoxy]-2-methyl-benzoyl]amino]pyridine-2-carboxamide]	17
COc1cc(OC(F)(F)F)ccc1Oc1cc(OC(F)(F)F)cc(C)c1C(=O)Nc1ccc(C(N)=O)nc1 [Compound 245, 5-[[2-[2-methoxy-4-(trifluoromethoxy)phenoxy]-6-methyl-4-(trifluoromethoxy)benzoyl]amino]pyridine-2-carboxamide]	333
NC(=O)c1cc(NC(=O)c2c(Oc3ccc(OC(F)(F)F)cc3O)ccc(C(F)(F)F)c2F)cc[n+]1[O-] [Compound 249, 4-[[2-fluoro-6-[2-hydroxy-4-(trifluoromethoxy)phenoxy]-3-(trifluoromethyl)benzoyl]amino]-1-oxido-pyridin-1-ium-2-carboxamide]	2930
NC(=O)c1cc(NC(=O)c2c(-c3ccc(OC(F)(F)F)cc3)ccc(C(F)(F)F)c2F)ccn1 [Compound 250, 4-[[2-fluoro-6-[4-(trifluoromethoxy)phenyl]-3-(trifluoromethyl)benzoyl]amino]pyridine-2-carboxamide]	> 3000
COc1cc(F)ccc1-c1ccc(C(F)(F)F)c(F)c1C(=O)Nc1ccnc(C(N)=O)c1 [Compound 251, 4-[[2-fluoro-6-(4-fluoro-2-methoxy-phenyl)-3-(trifluoromethyl)benzoyl]amino]pyridine-2-carboxamide]	> 3000
COc1cc(F)ccc1-c1ccc(C(F)(F)F)cc1C(=O)Nc1ccnc(C(N)=O)c1 [Compound 252, 4-[[2-(4-fluoro-2-methoxy-phenyl)-5-(trifluoromethyl)benzoyl]amino]pyridine-2-carboxamide]	> 3000
COc1cc(F)ccc1-c1ccc(C(F)(F)F)cc1C(=O)Nc1ccc(F)c(C(N)=O)c1 [Compound 253, N-(3-carbamoyl-4-fluoro-phenyl)-2-(4-fluoro-2-methoxy-phenyl)-5-(trifluoromethyl)benzamide]	> 3000
NC(=O)c1cc(NC(=O)c2ccc(C(F)(F)F)cc2-c2ccc(OC(F)(F)F)cc2)ccn1 [Compound 254, 4-[[2-[4-(trifluoromethoxy)phenyl]-4-(trifluoromethyl)benzoyl]amino]pyridine-2-carboxamide]	> 3000
NC(=O)c1cc(NC(=O)c2cc(Cl)ccc2Oc2ccc(OC(F)(F)F)cn2)ccc1F [Compound 256, 5-[[5-chloro-2-[[5-(trifluoromethoxy)-2-pyridyl]oxy]benzoyl]amino]-2-fluoro-benzamide]	> 3000
COc1cc(OC(F)(F)F)ccc1Oc1ccc(C2CCC2)c(C)c1C(=O)Nc1ccnc(C(N)=O)c1 [Compound 257, 4-[[3-cyclobutyl-6-[2-methoxy-4-(trifluoromethoxy)phenoxy]-2-methyl-benzoyl]amino]pyridine-2-carboxamide]	8
COc1c(C(F)(F)F)ccc(Oc2cccc(C3CCCCC3)c2)c1C(=O)Nc1ccnc(C(N)=O)c1 [Compound 258, 4-[[6-(3-cyclohexylphenoxy)-2-methoxy-3-(trifluoromethyl)benzoyl]amino]pyridine-2-carboxamide]	> 3000
COc1cc(OC(F)(F)F)ccc1Oc1ccc(F)c(F)c1C(=O)Nc1cc(C(N)=O)ncc1C [Compound 260, 4-[[2,3-difluoro-6-[2-methoxy-4-(trifluoromethoxy)phenoxy]benzoyl]amino]-5-methyl-pyridine-2-carboxamide]	66
COc1cc(OC(F)(F)F)ccc1Oc1cc(F)c(F)c(F)c1C(=O)Nc1cnc(C(N)=O)nc1 [Compound 262, 5-[[2,3,4-trifluoro-6-[2-methoxy-4-(trifluoromethoxy)phenoxy]benzoyl]amino]pyrimidine-2-carboxamide]	50
COc1cc(OC(F)(F)F)ccc1Oc1cc(OC)c(F)c(F)c1C(=O)Nc1ccnc(C(N)=O)c1 [Compound 263, 4-[[2,3-difluoro-4-methoxy-6-[2-methoxy-4-(trifluoromethoxy)phenoxy]benzoyl]amino]pyridine-2-carboxamide]	20
COc1cc(OC(F)(F)F)ccc1Oc1cc(C2CC2)c(F)c(C)c1C(=O)Nc1ccnc(C(N)=O)c1 [Compound 264, 4-[[4-cyclopropyl-3-fluoro-6-[2-methoxy-4-(trifluoromethoxy)phenoxy]-2-methyl-benzoyl]amino]pyridine-2-carboxamide]	52
COc1cc(OC(F)(F)F)ccc1Oc1cc(OC)c(Cl)c(F)c1C(=O)Nc1ccnc(C(N)=O)c1 [Compound 266, 4-[[3-chloro-2-fluoro-4-methoxy-6-[2-methoxy-4-(trifluoromethoxy)phenoxy]benzoyl]amino]pyridine-2-carboxamide]	2.8

Further lines, results first:

IC50 [nM]	SMILES
93	COc1cc(OC(F)(F)F)ccc1Oc1cc(C(C)(C)C)cc(C)c1C(=O)Nc1ccnc(C(N)=O)c1 [Compound 237, 4-[[4-tert-butyl-2-[2-methoxy-4-(trifluoromethoxy)phenoxy]-6-methyl-benzoyl]amino]pyridine-2-carboxamide]
695	COc1cc(OC(F)(F)F)ccc1Oc1cc(C(C)(C)C)cnc1C(=O)Nc1ccnc(C(N)=O)c1 [Compound 238, 5-tert-butyl-N-(2-carbamoyl-4-pyridyl)-3-[2-methoxy-4-(trifluoromethoxy)phenoxy]pyridine-2-carboxamide]
13	COc1cc(OC(F)(F)F)ccc1Oc1cc(OC(F)(F)F)cc(C)c1C(=O)Nc1ccnc(C(N)=O)c1 [Compound 242, 4-[[2-[2-methoxy-4-(trifluoromethoxy)phenoxy]-6-methyl-4-(trifluoromethoxy)benzoyl]amino]pyridine-2-carboxamide]
140	COc1cc(OC(F)(F)F)ccc1Oc1cc(C(F)(F)F)c(C2CC2)nc1C(=O)Nc1ccnc(C(N)=O)c1 [Compound 246, N-(2-carbamoyl-4-pyridyl)-6-cyclopropyl-3-[2-methoxy-4-(trifluoromethoxy)phenoxy]-5-(trifluoromethyl)pyridine-2-carboxamide]
190	COc1cc(OC(F)(F)F)ccc1Oc1cc(C(F)(F)F)c(C)nc1C(=O)Nc1ccnc(C(N)=O)c1 [Compound 247, N-(2-carbamoyl-4-pyridyl)-3-[2-methoxy-4-(trifluoromethoxy)phenoxy]-6-methyl-5-(trifluoromethyl)pyridine-2-carboxamide]
27	COc1cc(OC(F)(F)F)ccc1Oc1cc(C2CC2)cc(C)c1C(=O)Nc1ccnc(C(N)=O)c1 [Compound 248, 4-[[4-cyclopropyl-2-[2-methoxy-4-(trifluoromethoxy)phenoxy]-6-methyl-benzoyl]amino]pyridine-2-carboxamide]
> 3000	COc1cc(OC(F)(F)F)ccc1Oc1cc(C(F)(F)F)cc(Br)c1C(=O)Nc1ccnc(C(N)=O)c1 [Compound 255, 4-[[2-bromo-6-[2-methoxy-4-(trifluoromethoxy)phenoxy]-4-(trifluoromethyl)benzoyl]amino]pyridine-2-carboxamide]
59	COc1cc(OC(F)(F)F)ccc1Oc1ccc(F)c(F)c1C(=O)Nc1ccnc(C(N)=O)c1 [Compound 259, 4-[[2,3-difluoro-6-[2-methoxy-4-(trifluoromethoxy)phenoxy]benzoyl]amino]pyridine-2-carboxamide]
8	COc1cc(OC(F)(F)F)ccc1Oc1ccc(Cl)c(C)c1C(=O)Nc1ccnc(C(N)=O)c1 [Compound 261, 4-[[3-chloro-6-[2-methoxy-4-(trifluoromethoxy)phenoxy]-2-methyl-benzoyl]amino]pyridine-2-carboxamide]
35	COc1cc(OC(F)(F)F)ccc1Oc1cc(OC)c(Cl)c(C)c1C(=O)Nc1ccnc(C(N)=O)c1 [Compound 265, 4-[[3-chloro-4-methoxy-6-[2-methoxy-4-(trifluoromethoxy)phenoxy]-2-methyl-benzoyl]amino]pyridine-2-carboxamide]

Source: patent US12441703B2, “Carboxamides as modulators of sodium channels” (VERTEX PHARMACEUTICALS INCORPORATED, priority 2019, dated 2025)
